Measured values as given in US11839210B1, “Plant growth promoter with strigolactones regulation activities” (King Abdullah University of Science and Technology, priority 2017, dated 2023).

Legend:
[1] = system: D27; test: qRT-PCR of D27 gene expression in rice roots after zaxinone treatment; type: in vivo, rice (Oryza sativa Nipponbare); details: −Pi, 6 h
Description: (§1) For the analysis of SL transcript levels in the zas mutant, one week-old seedlings were grown hydroponically in half-strength modified Hoagland nutrient solution with K2HPO4·2H2O (+Pi) and without K2HPO4·2H2O (−Pi) for 7 days. Seedlings were further treated with zaxinone for 6 h and tissues were collected.
(§2) Total RNA was extracted from the roots and shoots using a Qiagen Plant RNeasy Kit according to the manufacturer's instruction. cDNA was synthesized from 1 μg of total RNA using iScript cDNA Synthesis Kit (BIO-RAD Laboratories, Inc, 2000 Alfred Nobel Drive, Hercules, CA, Cat. No #170-8890) according to instructions in the user manual. For mycorrhizal samples, single-strand cDNA was synthesized from 1 μg of total RNA using Super-Script II (Invitrogen) according to instructions in the user manual. Primers used for real-time quantitative RT-PCR (qRT-PCR) analysis are listed below in Table 3. qRT-PCR was performed using SYBR Green Master Mix (Applied Biosystems; www.lifetechnologies.com) in a StepOnePlus (Life Technologies, Carlsbad, CA, USA). For mycorrhizal samples, qRT-PCR was performed using a Rotor-Gene Q 5plex HRM Platform (Qiagen). The 2-ΔCt method was used to calculate the relative gene expression levels and rice Ubiquitin (OsUBQ or OsRubQ1) gene was used as the internal control to normalize target gene expression.
(§3) 14-day-old rice seedlings were transferred to new hydroponic pots containing fresh media with or without chemicals for 6 hours. SL biosynthetic (D27, D10, D17 and MAX1-Os900) gene expression were determined under −Pi conditions (phosphate deficient) with zaxinone (2.5 and 5 μM) treatment of both Nipponbare wild-type (WT) rice roots and zas mutant rice roots. The expression levels (1301) were detected by quantitative RT-PCR. Ubiquitin was used as a reference gene. Mock treatment (control) treatment consisted of 0.1% acetone. Bars (1302) show comparisons between the treatments and represent mean±SD (n=3). Decrease in SLs levels in the plants treated with zaxinone ranged from approximately 40% to 70%.

[2] = system: D10; test: qRT-PCR of D10 gene expression in rice roots after zaxinone treatment; type: in vivo, rice (Oryza sativa Nipponbare); details: −Pi, 6 h
Description: as §1, §2, §3

[3] = system: mycorrhizal wild-type and zas mutant rice plants; test: Zaxinone effect on mycorrhizal rice plants (phenotype and AM colonization); type: in vivo, Oryza sativa Nipponbare
Description: Seeds of WT (cv. Nipponbare) and zas mutant were germinated in pots containing sand and incubated for 10 days in a growth chamber under conditions having a 14 h light (23° C.)/10 h dark (21° C.) cycle. Plants used for mycorrhization were inoculated with Funelliformis mosseae (BEG 12, MycAgroLab, France) or Rhizophagus irregularis (INOQ GmbH, Germany) Both fungi inocula (25%) were mixed with sterile quartz sand and used for colonization. Plants were watered with a modified Long-Ashton (LA) solution containing 3.2 μM Na2HPO4·12H2O and were grown in a growth chamber under the 14 h light (24° C.)/10 h dark (20° C.) regime.
Wild-type and zas mycorrhizal plants were grown in sand and watered twice a week with different concentrations of zaxinone (5 μM; 0.5 μM; 50 nM) directly applied in the Long Ashton nutrient solution. Data were collected 35 days post germination (dpg).
Wild-type and zas mycorrhizal roots were stained with 0.1% cotton blue in lactic acid and the estimation of mycorrhizal parameters was performed using MYCOCALC. For the molecular analyses, roots were immediately frozen in liquid nitrogen and stored at −80° C.
Mycorrizhal plants were grown in sand and watered with Long Ashton solution (3.2 μM Pi) for five weeks post AM fungus inoculation. FIGS. 23A-23F show the effect of twice a week treatment with zaxinone (5 μM) for wild-type (WT) and zas mutant (zas) plants. Data are means±SE, n=9 plants. Different letters above the bars indicate significant differences according to Tukey's test (P<0.05).

[4] = system: SL biosynthesis genes (D27, CCD7, CCD8 and CO); test: qRT-PCR of transcript levels of SL biosynthesis genes (all four together) in rice roots; type: in vivo; details: for expression levels of D27, CCD7, CCD8 and CO: −Pi
Description: as §1, §2
Two week-old seedlings were grown for another one week in −Pi solution and then transferred to new vials containing fresh −Pi solution with and without the indicated concentrations (2.5 μM, 5 μM, 10 μM and 20 μM) of zaxinone for 6 h and samples were collected. SL biosynthetic genes expression for D27 (FIG. 19A), CCD7 […], CCD8 (FIG. 19C), and CO (Carlactone oxidase-FIG. 19D) in WT and zas mutants. […] The expression levels were detected by quantitative RT-PCR. Ubiquitin was used as a reference gene and the expression levels in the WT-mock were normalized to 1. Bars represent mean±SD (n=3). Different letters above each bar denote significant difference following a One-way ANOVA test (P<0.05).
Transcript levels of SL biosynthesis genes, D27 (FIG. 24C), CCD7/D17 (FIG. 24D), CCD8/D10 (FIG. 24E) and OsCO (Carlactone oxidase—FIG. 24F) in root tissues were collected for SL quantification. The expression levels were detected by qRT-PCR. Ubiquitin was used as a reference gene and the expression levels in the WT-mock were normalized to 1. Two week-old seedlings were grown for another one week in −Pi solution and then transferred to new vials containing fresh −Pi solution with and without 5 μM of zaxinone and GR24 for 6 h and samples were collected. Bars represent mean±SD (n=3). Different letters above each bar denote significant difference following a One-way ANOVA test (P<0.05).

[5] = WT rice roots, 2.5 μM zaxinone, WT mock approx. 1.0
[6] = WT rice roots, 5.0 μM zaxinone, WT mock approx. 1.0
[7] = zas mutant rice roots, 2.5 μM zaxinone
[8] = zas mutant rice roots, 5.0 μM zaxinone

`CC(=O)/C=C/C=C(C)/C=C/C1=C(C)C[C@@H](O)CC1(C)C` [zaxinone, 3-OH-β-apo-13-carotenone] was tested, and the “decrease of D27 relative expression vs mock” value ([1]; WT rice roots, 2.5 μM zaxinone) was “approximately 50%”, the D27 relative expression [1, 5] was “approximately 0.5” and the “decrease of D27 relative expression vs mock” value ([1]; WT rice roots, 5.0 μM zaxinone) was about 75%. For the same compound, the D27 relative expression [1, 6] was “approximately 0.25”, the “decrease of D27 relative expression vs mock” value [1, 7] was “approximately 63%” and the D27 relative expression ([1]; zas mutant rice roots, 2.5 μM zaxinone, zas mock approx. 3.25) was “approximately 1.2”. The “decrease of D27 relative expression vs mock” value [1, 8] was about 77%, the D27 relative expression ([1]; zas mutant rice roots, 5.0 μM zaxinone, zas mock approx. 3.25) was “approximately 0.75” and the “decrease of D10 relative expression vs mock” value ([2]; WT rice roots, 2.5 μM zaxinone) was “approximately 75%”. The D10 relative expression [2, 5] was “approximately 0.25”, the “decrease of D10 relative expression vs mock” value ([2]; WT rice roots, 5.0 μM zaxinone) was about 70% and the D10 relative expression [2, 6] was “approximately 0.3”. For the same compound, the “decrease of D10 relative expression vs mock” value [2, 7] was “approximately 60%”, the D10 relative expression ([2]; zas mutant rice roots, 2.5 μM zaxinone, zas mock approx. 2.5) was “approximately 1.0” and the “decrease of D10 relative expression vs mock” value [2, 8] was about 68%. The D10 relative expression ([2]; zas mutant rice roots, 5.0 μM zaxinone, zas mock approx. 2.5) was “approximately 0.8”, the AM colonization capacity ([3]; 5 μM zaxinone) was “did not improve” and the “growth vs Mock treatment” value ([3]; WT mycorrhizal plants, 5 μM zaxinone twice a week, five weeks) was “did not significantly differ”. The “crown root number, root biomass, shoot length and shoot biomass” value ([3]; zas mutant mycorrhizal plants, 5 μM zaxinone twice a week, five weeks) was “significant increase”, the “SL transcript levels in roots” value ([4]; Shiokari wild-type and d3 seedlings, phosphate-starved, 5 μM, 6 h) was “decreased” and the “transcript levels of D27, CCD7, CCD8 and CO” value ([4]; WT and zas root tissues, normal phosphorus (+Pi), zaxinone 6 h) was “nor was there a pronounced effect”. For the same compound, the “expression levels of D27, CCD7, CCD8 and CO” value (“expression levels of D27, CCD7” below) ([4]; wild-type roots, 2.5-20 μM zaxinone, 6 h) was “decreased the expression levels of the wild-type to levels below the WT/Mock control level”, the “transcript levels of D27, CCD7, CCD8 and CO” value ([4]; zas mutant and wild-type seedlings, phosphate starvation, 5 μM zaxinone) was “decreased the transcript levels” and the “expression levels of D27, CCD7” value ([4]; zas mutant roots, increased concentrations (5, 10, 20 μM) vs 2.5 μM, 6 h) was “Only slight decreases”. The “expression levels of D27, CCD7” value ([4]; zas mutant roots, lowest level of zaxinone (2.5 μM), 6 h) was “reduced the expression levels to near the WT/Mock level” and the “relative expression of transcript levels of D27, CCD7, CCD8 and CO” value ([4]; zaxinone treated zas mutants (zas/Zax), phosphate starvation, 5 μM) was “at or near levels for the wild-type controls”.
